Data as given in patent US5087634A, “N-substituted imidazol-2-one compounds for treatment of circulatory disorders” (G. D. Searle & Co., priority 1990, dated 1992).
“And” between values parts separate entries of the source, which are not always exact repeats. Identical values can stand only once.

How the values were obtained:
[1] = test system: angiotensin II; conditions: binding experiments, functional assays and in vivo tests; cited from earlier work
[2] = test system: angiotensin II receptors; conditions: cited from earlier work
[3] = target: T1, rabbit aortic rings (Oryctolagus cuniculus, UniProt P34976); test: In Vitro Vascular Smooth Muscle-Response for AII (rabbit aortic rings); design: species or system rabbit (male New Zealand white); conditions: antagonist 10^-5 M for 5 minutes before AII; rabbit aorta rings, 37° C.; read-out: pA2 value (converted)
T1 construct: The thoracic aorta was removed, cleaned of adherent fat and connective tissue and then cut into 3-mm ring segments; from tissue; host or cells: thoracic aorta rings of male New Zealand white rabbits, endothelium removed
T1 sequence (P34976 1-359): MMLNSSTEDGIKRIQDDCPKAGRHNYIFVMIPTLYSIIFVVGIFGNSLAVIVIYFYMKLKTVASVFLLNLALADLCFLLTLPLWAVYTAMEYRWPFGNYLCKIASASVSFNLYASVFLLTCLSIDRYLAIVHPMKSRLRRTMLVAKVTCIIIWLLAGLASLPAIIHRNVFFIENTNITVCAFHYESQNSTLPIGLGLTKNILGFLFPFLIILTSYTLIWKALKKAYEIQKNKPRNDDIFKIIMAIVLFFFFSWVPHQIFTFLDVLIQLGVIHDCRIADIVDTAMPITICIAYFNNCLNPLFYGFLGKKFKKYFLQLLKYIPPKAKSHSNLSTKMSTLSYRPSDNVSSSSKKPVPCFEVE
Method: The compounds of the invention were tested for antagonist activity in rabbit aortic rings. Male New Zealand white rabbits (2-2.5 kg) were sacrificed using an overdose of pentobarbital and exsanguinated via the carotid arteries. The thoracic aorta was removed, cleaned of adherent fat and connective tissue and then cut into 3-mm ring segments. The endothelium was removed from the rings by gently sliding a rolled-up piece of filter paper into the vessel lumen. The rings were then mounted in a water-jacketed tissue bath, maintained at 37° C., between moveable and fixed ends of a stainless steel wire with the moveable end attached to an FT03 Grass transducer coupled to a Model 7D Grass Polygraph for recording isometric force responses. The bath was filled with 20 ml of oxygenated (95% oxygen/5% carbon dioxide) Krebs solution of the following composition (mM): 130 NaCl, 15 NaHCO3, 15 KCl, 1.2 NaH2 P04, 1.2 MgSO4, 2.5 CaCl2, and 11.4 glucose. The preparations were equilibrated for one hour before approximately one gram of passive tension was placed on the rings. Angiotensin II concentration-response curves were then recorded (3×10^-10 to 1×10^-5 M). […] The effectiveness of the test compound was expressed in terms of pA2 values and were calculated according to H. O. Schild [Br. J. Pharmacol. Chemother., 2, 189-206 (1947)]. […] Each test antagonist was evaluated in aorta rings from two, rabbits.

[4] = test system: angiotensin II pressor response; test: In Vivo Intragastric Pressor Assay Response for AII Antagonists; design: species or system rat (male Sprague-Dawley); conditions: dose 10 (units not given), gavage, listed as EX. #1
Method: Male Sprague-Dawley rats weighing 225-300 grams were anesthetized with methohexital (30 mg/kg, i.p.) and catheters were implanted into the femoral artery and vein. The catheters were tunneled subcutaneously to exit dorsally, posterior to the head and between the scapulae. The catheters were filled with heparin (1000 units/ml of saline). The rats were returned to their cage and allowed regular rat chow and water ad libitum. After full recovery from surgery (3-4 days), rats were placed in Lucite holders and the arterial line was connected to a pressure transducer. Arterial pressure was recorded on a Gould polygraph (mmHg). […] After allowing one hour for pressure to stabilize, the test compound (suspended in 0.5% methylcellulose in water) was administered by gavage. The volume administered was 2 ml/kg body weight. Arterial pressure was monitored for 5 hours post-dosing. The angiotensin II infusion was then discontinued and pressure was allowed to reach a stable recovery level. Percent inhibition (%I) of the angiotensin II pressor response was calculated from the difference in pressure at a given timepoint post-dosing with the test compound and the antiotensin II-infused pressure, divided by the difference in pressure with and without the angiotensin II infusion; this value was multiplied by 100. Duration of action of a test compound was defined as the time taken for pressure to return to angiotensin II-infused baseline levels after compound administration. One compound at one dose was tested in each rat. The compound of Example I was tested in two rats.

[5] = target: smooth muscle angiotensin II receptor; test: Angiotensin II Binding Activity (displacement of 125I-AII from rat uterine membranes); conditions: 25° C., 60 min, read-out: IC50 (50% displacement of the total specifically bound 125I-AII)
Method: Compounds of the invention were tested for ability to bind to the smooth muscle angiotensin II receptor using a rat uterine membrane preparation. Angiotensin II (AII) was purchased from Peninsula Labs. 125I-angiotensin II (specific activity of 2200 Ci/mmol) was purchased from Du Pont-New England Nuclear. Other chemicals were obtained from Sigma Chemical Co. This assay was carried out according to the method of Douglas et al [Endocrinoloby, 106, 120-124 (1980)]. Rat uterine membranes were prepared from fresh tissue. All procedures were carried out at 4° C. Uteri were stripped of fat and homogenized in phosphate-buffered saline at pH 7.4 containing 5 mM EDTA. The homogenate was centrifuged at 1500× g for 20 min., and the supernatant was recentrifuged at 100,000× g for 60 min. The pellet was resuspended in buffer consisting of 2 mM EDTA and 50 mM Tris-HCl (pH 7.5) to a final protein concentration of 4 mg/ml. Assay tubes were charged with 0.25 ml of a solution containing 5 mM MgCl2, 2 mM EDTA, 0.5% bovine serum albumin, 50 mM Tris-HCl, pH 7.5 and ^125 I-AJI (approximately 10^5 cpm) in the absence or in the presence of unlabelled ligand. […] Filters were assayed for radioactivity in a Micromedic gamma counter. […] Specific binding was calculated as total binding minus nonspecific binding. […] Binding data were analyzed by a nonlinear least-squares curve fitting program.

## CCCCc1nc(Cl)c(CC(=O)O)n1Cc1ccccc1Cl [2-n-butyl-4-chloro-l-(2-chlorobenzyl)imidazole-5-acetic acid]
[1]
  angiotensin II antagonist activity: specific competitive angiotensin II antagonist activity

## CNCC(=O)N[C@@H](CCCN=C(N)N)C(=O)N[C@H](C(=O)N[C@@H](Cc1ccc(O)cc1)C(=O)N[C@H](C(=O)N[C@@H](Cc1cnc[nH]1)C(=O)N1CCC[C@H]1C(=O)N[C@@H](C)C(=O)O)C(C)C)C(C)C [Saralasin]
[2]
  residual agonist activity: significant residual agonist activity

## CCCCc1nc(Cl)c(CC(=O)O)n1Cc1ccccc1[N+](=O)[O-] [2-butyl-4-choloro-l-(2-nitrobenzyl)imidazole-5-acetic acid]
[1]
  angiotensin II antagonist activity: specific competitive angiotensin II antagonist activity

## CCCCc1cn(CCCC)c(=O)n1Cc1ccc(-c2ccccc2-c2nnn[nH]2)cc1 [Example 1, 1,4-dibutyl-1,3-dihydro-3-[2'-(1H-tetrazol-5-yl)[1,1'biphenyl]-4-ylmethyl]-2H-imidazol-2-one]
[3]
  Kb: 2.51 nM
[4]; time 10, AII infusion 50 ng/kg/min, two rats (baseline/after AII 116/168 and 126/175 mmHg)
  mean arterial pressure after administration, time 10: 165 mmHg and 166 mmHg
[4]; time 20, AII-infused rats
  mean arterial pressure after administration, time 20: 163 mmHg and 155 mmHg
[4]; time 30, AII-infused rats
  mean arterial pressure after administration, time 30: 159 mmHg and 147 mmHg
[4]; time 40, AII-infused rats
  % inhibition (% I) of the AII pressor response, time 40: 41% and 58%
  mean arterial pressure after administration, time 40: 146 mmHg and 147 mmHg
[4]; time 50, AII-infused rats
  % inhibition (% I) of the AII pressor response, time 50: 45% and 89%
  mean arterial pressure after administration, time 50: 144 mmHg and 132 mmHg
[4]; time 60, AII-infused rats
  % inhibition (% I) of the AII pressor response, time 60: 54% and 88%
  mean arterial pressure after administration, time 60: 140 mmHg and 132 mmHg
[4]; time 90, AII-infused rats
  % inhibition (% I) of the AII pressor response, time 90: 86% and 96%
  mean arterial pressure after administration, time 90: 123 mmHg and 128 mmHg
[4]; time 120, AII-infused rats
  % inhibition (% I) of the AII pressor response, time 120: 85% and 103%
  mean arterial pressure after administration, time 120: 124 mmHg and 125 mmHg
[4]; time 150, AII-infused rats
  % inhibition (% I) of the AII pressor response, time 150: 93% and 97%
  mean arterial pressure after administration, time 150: 119 mmHg and 128 mmHg
[4]; time 180, AII-infused rats
  % inhibition (% I) of the AII pressor response, time 180: 96% and 97%
  mean arterial pressure after administration, time 180: 117 mmHg and 127 mmHg
[4]; time 210, AII-infused rats
  % inhibition (% I) of the AII pressor response, time 210: 106% and 98%
  mean arterial pressure after administration, time 210: 113 mmHg and 127 mmHg
[4]; time 240, AII-infused rats
  % inhibition (% I) of the AII pressor response, time 240: 102% and 89%
  mean arterial pressure after administration, time 240: 115 mmHg and 131 mmHg
[4]; time 270, AII-infused rats
  % inhibition (% I) of the AII pressor response, time 270: 96% and 92%
  mean arterial pressure after administration, time 270: 117 mmHg and 130 mmHg
[4]; time 300, AII-infused rats
  % inhibition (% I) of the AII pressor response, time 300: 97% and 87%
  mean arterial pressure after administration, time 300: 117 mmHg and 133 mmHg
[5]
  IC50: 6.4 nM
